Test results published in patent US8546392B2, “17Beta-hydroxysteroid dehydrogenase type 1 inhibitors for the treatment of hormone-related diseases” (Universitaet des Saarlandes, priority 2008, dated 2013).
Where two headings read alike, the source gives them in different places.

Experiments:
[1] = In vivo pharmacokinetics (rat), cassette dosing method; details: cassette dosing perorally 10 mg/kg, male Wistar rats; for AUC(0-t) / Tmax / AUC(0-inf): rat, plasma, po; for AUC(0-inf): extrapolated to ∞
Description: Labrasol/water 1/1). The plasma profiles were established by means of LC-MS/MS.

estrogen receptor β = estrogen receptor β (Homo sapiens (Human), UniProt Q92731); assay: Estrogen receptor binding assay, ERβ
Chain of estrogen receptor β (Q92731 whole entry): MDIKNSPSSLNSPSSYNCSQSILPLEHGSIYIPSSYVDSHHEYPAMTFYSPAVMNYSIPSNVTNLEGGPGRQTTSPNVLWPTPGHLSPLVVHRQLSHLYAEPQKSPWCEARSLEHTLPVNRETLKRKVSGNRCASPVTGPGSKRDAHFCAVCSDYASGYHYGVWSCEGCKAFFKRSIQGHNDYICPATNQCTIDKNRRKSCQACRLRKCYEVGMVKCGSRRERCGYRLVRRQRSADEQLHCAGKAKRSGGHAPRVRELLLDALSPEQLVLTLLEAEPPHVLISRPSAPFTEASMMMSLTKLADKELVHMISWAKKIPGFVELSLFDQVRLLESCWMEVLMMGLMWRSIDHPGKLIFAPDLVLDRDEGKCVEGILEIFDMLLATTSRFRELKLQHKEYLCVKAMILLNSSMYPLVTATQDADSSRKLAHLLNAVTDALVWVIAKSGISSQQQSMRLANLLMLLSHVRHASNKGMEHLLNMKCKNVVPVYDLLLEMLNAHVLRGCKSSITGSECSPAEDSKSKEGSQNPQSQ

17β-HSD2 = 17β-HSD2 (Homo sapiens (Human), UniProt P37059); assay: 17β-HSD2 test assay (recombinant protein from Sf9 insect cells, 3H-estradiol/NAD+); format: biochemical; details: for inhibition at 0.1 µM: read-out: HSD2 100 nM (% inhibition); for inhibition at 1 µM: read-out: HSD2 1 μM (% inhibition)
Chain of 17β-HSD2 (P37059 whole entry): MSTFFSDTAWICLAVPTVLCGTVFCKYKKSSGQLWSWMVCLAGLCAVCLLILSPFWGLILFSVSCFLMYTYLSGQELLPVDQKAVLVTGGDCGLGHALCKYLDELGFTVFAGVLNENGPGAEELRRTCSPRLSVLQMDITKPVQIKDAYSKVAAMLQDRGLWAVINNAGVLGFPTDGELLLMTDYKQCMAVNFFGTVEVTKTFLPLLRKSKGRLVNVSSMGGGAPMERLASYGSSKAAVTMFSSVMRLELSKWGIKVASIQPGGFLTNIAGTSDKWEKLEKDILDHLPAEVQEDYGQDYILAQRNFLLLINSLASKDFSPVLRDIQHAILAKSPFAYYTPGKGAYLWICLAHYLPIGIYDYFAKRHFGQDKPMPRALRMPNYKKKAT
Procedure: Recombinant protein obtained from Sf9 insect cells (0.1 μg/ml) is incubated with 20 mM KH2PO4, pH 7.4, 30 nM ^3H-estradiol and 1 mM NAD+ for 30 min at RT in the presence of the potential inhibitor in a concentration of 1 μM or 100 nM. The stock solutions of the compounds are prepared in DMSO so that the final concentration of DMSO in the sample is 1%. After the prescribed incubation time, the reaction is quenched by adding trichloroacetic acid (10% final concentration). The samples are centrifuged in microtitration plates at 400 rpm for 10 min, and the supernatants are charged on a reversed-phase HPLC equipped with a Waters Symmetrie C18 column and
Waters Sentry Guard column. The isocratic HPLC run is performed at RT with a flow rate of 1 ml/min and acetonitrile/water 48:52 as the eluent. The radioactivity was measured by means of a Packard Flow Scintillation Analyzer. The percent inhibition was calculated by means of the formulas stated above.

estrogen receptor α = estrogen receptor α (Homo sapiens (Human), UniProt P03372); assay: Estrogen receptor binding assay, ERα
Chain of estrogen receptor α (P03372 whole entry): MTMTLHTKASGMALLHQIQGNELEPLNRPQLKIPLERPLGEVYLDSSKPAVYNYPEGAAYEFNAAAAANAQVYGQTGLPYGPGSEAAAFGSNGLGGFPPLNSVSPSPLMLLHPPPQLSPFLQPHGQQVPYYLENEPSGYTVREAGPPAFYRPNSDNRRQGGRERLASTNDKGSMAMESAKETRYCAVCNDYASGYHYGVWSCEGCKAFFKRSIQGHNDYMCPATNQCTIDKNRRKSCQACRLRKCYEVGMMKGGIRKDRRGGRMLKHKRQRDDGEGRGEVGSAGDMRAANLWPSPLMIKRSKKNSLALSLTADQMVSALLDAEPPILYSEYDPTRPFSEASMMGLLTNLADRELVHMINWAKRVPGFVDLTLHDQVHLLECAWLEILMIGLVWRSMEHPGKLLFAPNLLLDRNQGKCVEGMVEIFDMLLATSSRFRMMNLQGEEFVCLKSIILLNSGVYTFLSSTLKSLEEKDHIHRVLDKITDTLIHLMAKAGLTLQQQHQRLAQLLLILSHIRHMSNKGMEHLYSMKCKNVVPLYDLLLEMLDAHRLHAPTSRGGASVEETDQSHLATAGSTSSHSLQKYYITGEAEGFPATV

CYP2D6 = CYP2D6 (Homo sapiens (Human), UniProt P10635); assay: P450 inhibition assay CYP2D6; format: biochemical; details: read-out: IC50 (mean ± SD) [μM] CYP2D6
Chain of CYP2D6 (P10635 whole entry): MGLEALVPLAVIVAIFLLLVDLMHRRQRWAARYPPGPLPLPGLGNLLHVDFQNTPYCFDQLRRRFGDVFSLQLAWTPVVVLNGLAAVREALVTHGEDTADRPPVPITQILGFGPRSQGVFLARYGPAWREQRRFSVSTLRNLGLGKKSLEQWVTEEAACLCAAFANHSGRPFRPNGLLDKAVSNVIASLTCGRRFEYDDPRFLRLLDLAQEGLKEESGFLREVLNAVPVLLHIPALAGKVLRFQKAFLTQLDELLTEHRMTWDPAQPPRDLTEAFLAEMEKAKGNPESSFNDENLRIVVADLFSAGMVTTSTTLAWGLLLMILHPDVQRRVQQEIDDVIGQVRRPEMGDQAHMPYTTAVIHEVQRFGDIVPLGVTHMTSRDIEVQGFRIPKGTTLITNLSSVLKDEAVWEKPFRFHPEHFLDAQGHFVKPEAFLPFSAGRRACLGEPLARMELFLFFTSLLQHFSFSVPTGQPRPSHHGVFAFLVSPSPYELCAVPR

[2] = Test for metabolic stability, liver microsomes; details: for Slope (−k): rat liver microsomes
Procedure: The assay was performed with liver microsomes of rats.
The incubation solution (180 μl) consists of 90 μl of a microsomal suspension of 0.33 mg/ml protein in 100 mM phosphate buffer, pH 7.4, with 90 μl NADP-regenerating system (NADP: 1 mM, glucose-6-phosphate 5 mM, glucose-6-phosphate dehydrogenase: 5 U/ml, MgCl2 5 mM).
The reaction is started by adding 20 μl of the compound to be tested in 20% ACN to the microsome/buffer mixture preincubated at 37° C. After 0, 15, 30 and 60 minutes, 200 μl of sample solution is withdrawn and subjected to ACN precipitation. The isolation of the compounds is effected by adding 200 μl ACN that contains the internal standard (1 μM) to 200 μl of sample solution and calibration standard. After shaking for 10 s and centrifugation at 4000 g, an aliquot of the supernatant is subjected to LC-MS/MS. Two controls are included, namely a positive control with 7-ethoxycoumarin as a reference to verify the microsomal enzyme activity, and a negative control in which microsomes are used that were heated for 25 minutes without a regenerating system, in order to ensure that the loss of substance is actually due to metabolization.
The amount of compound in a sample is expressed as the percent fraction of the compound remaining as compared to time t=0 (100%). The percent fraction is plotted versus time.

17β-HSD1 = 17β-HSD1 (Homo sapiens (Human), UniProt P14061); assay: 17β-HSD1 test assay (recombinant protein from Sf9 insect cells, 3H-estrone/NADPH); format: biochemical; details: for inhibition at 1 µM: read-out: HSD 1 μM (% inhibition of HSD1); for inhibition at 0.1 µM: read-out: HSD1 100 nM (% inhibition)
Chain of 17β-HSD1 (P14061 whole entry): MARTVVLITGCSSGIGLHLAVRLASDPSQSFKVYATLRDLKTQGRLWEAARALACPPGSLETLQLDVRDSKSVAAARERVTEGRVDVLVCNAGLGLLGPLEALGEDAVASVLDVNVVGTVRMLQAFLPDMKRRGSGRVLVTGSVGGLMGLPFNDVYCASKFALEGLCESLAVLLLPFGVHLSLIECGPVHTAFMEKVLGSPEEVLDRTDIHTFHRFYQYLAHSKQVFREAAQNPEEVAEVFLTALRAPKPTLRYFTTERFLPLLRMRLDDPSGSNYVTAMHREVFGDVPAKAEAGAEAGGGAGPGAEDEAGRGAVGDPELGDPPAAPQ
Summary of the method: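 Sf9-expressed recombinant enzyme (0.1 μg/ml) with 30 nM 3H-estrone and 1 mM NADPH in 20 mM KH2PO4 pH 7.4, 30 min at RT; inhibitor at 1 μM or 100 nM, 1% DMSO final. Quenched with TCA; conversion measured by reversed-phase HPLC with flow scintillation detection.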

[3] = CaCo-2 assay (transport experiments); format: in vitro ADME; details: human, Caco-2; initial donor concentration 50 μM
Procedure: (§1) Four reference compounds (atenolol, testosterone, ketoprofene and erythromycin) were employed in each assay for evaluating the transport properties of the CaCo-2 cells. The initial concentration of the compounds in the donor compartment was 50 μM (in buffer with 1% ethanol or DMSO). […] For glycoprotein P (P-gp) studies, bidirectional experiments were performed. The absorptive and secretory permeabilities (Papp(a-b) and Papp(b-a)) were determined. Thus, erythromycin was used as a substrate, and verapamil was used as an inhibitor of P-gp. Each experiment was performed in triplicate. The integrity of the monolayer was determined by means of TEER (transepithelial electric resistance) and the permeability for each assay was determined using Lucifer Yellow. All samples of the CaCo-2 transport experiments were analyzed by means of LC/MS/MS after dilution with buffer (1:1 with 2% acetic acid).

CaCo-2 cells = assay: CaCo-2 assay (transport experiments); format: in vitro ADME; details: for Permeability: class in words; for final basolateral concentration [μM ± SD]: initial donor concentration 50 μM
Procedure: as §1

CYP3A4 = CYP3A4 (Homo sapiens (Human), UniProt P08684); assay: P450 inhibition assay CYP3A4; format: biochemical; details: read-out: IC50 (mean ± SD) [μM] CYP3A4
Chain of CYP3A4 (P08684 whole entry): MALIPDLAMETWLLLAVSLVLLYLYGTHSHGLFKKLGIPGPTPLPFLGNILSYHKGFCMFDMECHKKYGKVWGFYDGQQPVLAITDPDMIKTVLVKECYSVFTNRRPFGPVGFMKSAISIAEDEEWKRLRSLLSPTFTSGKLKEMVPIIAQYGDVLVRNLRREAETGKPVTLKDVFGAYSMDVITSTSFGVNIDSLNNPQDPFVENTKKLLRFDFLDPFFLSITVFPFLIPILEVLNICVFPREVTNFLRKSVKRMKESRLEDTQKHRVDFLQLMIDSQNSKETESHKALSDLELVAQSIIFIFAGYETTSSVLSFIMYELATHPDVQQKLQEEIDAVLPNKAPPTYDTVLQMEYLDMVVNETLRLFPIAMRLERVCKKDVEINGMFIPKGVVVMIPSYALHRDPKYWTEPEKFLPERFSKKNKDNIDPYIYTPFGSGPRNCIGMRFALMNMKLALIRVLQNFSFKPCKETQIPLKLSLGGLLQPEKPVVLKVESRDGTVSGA

CYP2B6 = CYP2B6 (Homo sapiens (Human), UniProt P20813); assay: P450 inhibition assay CYP2B6
Chain of CYP2B6 (P20813 whole entry): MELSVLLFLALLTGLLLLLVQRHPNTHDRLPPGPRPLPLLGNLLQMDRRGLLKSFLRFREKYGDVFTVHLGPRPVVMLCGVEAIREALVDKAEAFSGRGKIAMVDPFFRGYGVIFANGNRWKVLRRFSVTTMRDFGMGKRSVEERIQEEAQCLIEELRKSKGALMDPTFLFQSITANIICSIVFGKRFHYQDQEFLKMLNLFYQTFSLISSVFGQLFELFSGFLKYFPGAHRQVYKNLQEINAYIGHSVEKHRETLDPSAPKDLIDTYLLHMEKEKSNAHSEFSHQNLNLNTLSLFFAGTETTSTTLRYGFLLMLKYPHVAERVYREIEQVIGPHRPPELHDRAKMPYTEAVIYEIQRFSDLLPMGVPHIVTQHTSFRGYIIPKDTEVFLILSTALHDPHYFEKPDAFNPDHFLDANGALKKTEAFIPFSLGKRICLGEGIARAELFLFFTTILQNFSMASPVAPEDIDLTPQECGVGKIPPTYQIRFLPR

[4] = In vivo pharmacokinetics (rat), single oral administration; details: single oral administration 50 mg/kg, male Wistar rats
[5] = relative binding affinity (estradiol: 100%)

| SMILES | T1/2z [1] | tz [1] | AUC(0-t) [1] | Tmax [1] | AUC(0-inf) [1] | RBA ERβ [%] (estrogen receptor β; [5]) | inhibition at 0.1 µM (17β-HSD2; inhibitor 100 nM) | inhibition at 1 µM (17β-HSD2; inhibitor 1 μM) | RBA ERα [%] (estrogen receptor α; [5]) | inhibition at 1 µM (17β-HSD1; inhibitor 1 μM) | inhibition at 0.1 µM (17β-HSD1; inhibitor 100 nM) | Papp at 180 min, 50 μM [3] | mass balance [% ± SD] (CaCo-2 cells) | Permeability (CaCo-2 cells) | final basolateral concentration [μM ± SD] (CaCo-2 cells) | inhibition at 1 µM (17β-HSD1) | inhibition at 0.1 µM (17β-HSD1) | further results |
| --- | --- | --- | --- | --- | --- | --- | --- | --- | --- | --- | --- | --- | --- | --- | --- | --- | --- | --- |
| Oc1cccc(-c2ccc3cc(O)ccc3c2)c1 [Compound 19, 6-(3-Hydroxyphenyl)-2-naphthol] | 4.4 h | 24.0 h | 29.7 µg·h/mL | 6 h | 30.7 µg·h/mL | 0.80% | 12.4% | 16.6% | 0.23% | 94% | 91.4% | 89 nm/s | 37.5 ± 3.0% | moderate | 6.5 ± 0.2 µM | – | – | IC50 (CYP2D6): 32.6 ± 0.72 µM; Slope (−k) [2]: −0.055; half-life ([2]; rat, microsomes, pH 7.4): 0.21 h; microsomal CLint ([2]; rat, microsomes, pH 7.4): 367 µL/min/mg |
| O=C(Nc1ccccc1)c1c(O)ccc2cc(-c3cccc(O)c3)ccc12 [Compound 42, 2-Hydroxy-6-(3-hydroxyphenyl)-N-phenyl-1-naphthamide] | – | – | – | – | – | – | < 10% | 16.3% | – | 80.2% | 40% | 15 nm/s | 7.6 ± 0.5% | moderate | 1.1 ± 0.1 µM | – | – | – |
| Oc1cccc(-c2ccc3c(-c4ccccc4)c(O)ccc3c2)c1 [Compound 56, 6-(3-Hydroxyphenyl)-1-phenyl-2-naphthol] | 5.9 h | 24.0 h | 11.7 µg·h/mL | 4 h | 12.7 µg·h/mL | 0.044% | 22.1% | 77.2% | 0.055% | 89.4% | 76.2% | – | – | – | – | – | – | – |
| Oc1cccc(-c2ccc3c(-c4cccc(O)c4)c(O)ccc3c2)c1 [Compound 57, 1,6-Bis(3-hydroxyphenyl)naphthalene-2-ol] | 0.9 h | 10.0 h | 10.7 µg·h/mL | 6 h | 10.7 µg·h/mL | 0.020% | – | – | 0.0013% | 92.6% | 82.9% | – | – | – | – | – | – | inhibition at 0.1 µM (17β-HSD2): < 10%; inhibition at 1 µM (17β-HSD2): 40.1% |
| Oc1cccc(-c2ccc3c(-c4ccoc4)c(O)ccc3c2)c1 [Compound 58, 1-(Furan-3-yl)-6-(3-hydroxyphenyl)naphthalene-2-ol] | – | – | – | – | – | – | 60.6% | 92.3% | – | – | – | – | – | – | – | 89.1% | 83% | RBA ERβ [%] (estrogen receptor β): 0.024%; RBA ERα [%] (estrogen receptor α): 0.022% |
| Oc1cccc(-c2ccc3c(-c4ccncc4)c(O)ccc3c2)c1 [Compound 60, 6-(3-Hydroxyphenyl)-1-(pyridin-4-yl)naphthalene-2-ol] | – | – | – | – | – | 0.003% | 12.2% | 48.5% | 0.0068% | – | – | – | – | – | – | 85.9% | 74.4% | – |
| COc1ccc(-c2c(O)ccc3cc(-c4cccc(O)c4)ccc23)cn1 [Compound 62, 6-(3-Hydroxyphenyl)-1-(6-methoxypyridin-3-yl)naphthalene-2-ol] | – | – | – | – | – | – | – | – | – | 89.2% | 85.9% | – | – | – | – | – | – | inhibition at 0.1 µM (17β-HSD2): 24.3%; inhibition at 1 µM (17β-HSD2): 67.2%; IC50 (CYP3A4): 1.07 ± 0.05 µM; IC50 (CYP2D6): 40 ± 0.08 µM; Slope (−k) [2]: −0.014; microsomal CLint ([2]; rat, liver microsomes, pH 7.4): 92.8 µL/min/mg; IC50 (CYP2B6): 10.4 ± 0.14 µM |
| CS(=O)(=O)Nc1cccc(-c2c(O)ccc3cc(-c4cccc(O)c4)ccc23)c1 [Compound 64, N-(3-(2-Hydroxy-6-(3-hydroxyphenyl)naphthalene-1-yl)phenyl)methanesulfonamide] | 1.1 h | 10.0 h | 1.33 µg·h/mL | 2 h | 1.33 µg·h/mL | – | 31.1% | 71.3% | – | – | – | – | – | – | – | 90.8% | 88.1% | RBA ERβ [%] (estrogen receptor β): 0.007%; RBA ERα [%] (estrogen receptor α): 0.012% |
| Nc1cccc(-c2c(O)ccc3cc(-c4cccc(O)c4)ccc23)c1 [Compound 68, 1-(3-Aminophenyl)-6-(3-hydroxyphenyl)naphthalene-2-ol] | 2.4 h | 24.0 h | 0.539 µg·h/mL | 2 h | 0.54 µg·h/mL | – | < 10% | 39.1% | – | 87.3% | 74.1% | 164 nm/s | 52.7 ± 3.6% | high | 13.9 ± 0.8 µM | – | – | AUC(0-t) ([4]; rat, plasma): 0.337 µg·h/mL; Tmax ([4]; rat, plasma): 2 h; AUC(0-inf) ([4]; rat, plasma, extrapolated to ∞): 0.337 µg·h/mL; t1/2z [4]: 1.59 h; tz [4]: 8.0 h |
| O=S(=O)(Nc1nccs1)c1cccc(-c2c(O)ccc3cc(-c4cccc(O)c4)ccc23)c1 [Compound 69, 3-(2-Hydroxy-6-(3-hydroxyphenyl)naphthalene-1-yl)-N-(thiazol-2-yl)-benzenesulfonamide] | – | – | – | – | – | 0.010% | 24% | 71% | 0.015% | 96.3% | 87% | – | – | – | – | – | – | – |
